Measurements published in ChEMBL document CHEMBL1201862, “PubChem BioAssay data set” (2004).
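Interpolation was linear, between the two tested concentrations surrounding the appropriate level; five concentrations were tested over 48 hours in 96-well plates. GI50: concentration for 50% inhibition of growth.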 Calls of active or inactive are those of the source. No stated cut-off is given here; in the data, active = GI50 up to about 1.1 µM and inactive = higher.

Key:
Test in all cases: inhibition of tumour cell growth, NCI panel, 48 h
786-0 = test system: 786-0
A498 = test system: A498
A549 = test system: A549
ACHN = test system: ACHN
CAKI-1 = test system: CAKI-1
CCRF-CEM = test system: CCRF-CEM
COLO 205 = test system: COLO 205
DMS-114 = test system: DMS-114
DMS-273 = test system: DMS-273
EKVX = test system: EKVX
HCT-15 = test system: HCT-15
HL-60 = test system: HL-60
HOP-62 = test system: HOP-62
HT-29 = test system: HT-29
IGROV-1 = test system: IGROV-1
K562 = test system: K562
KM-20L2 = test system: KM-20L2
KM12 = test system: KM12
LOX IMVI = test system: LOX IMVI
LXFL 529 = test system: LXFL 529
M14 = test system: M14
M19-MEL = test system: M19-MEL
MOLT-4 = test system: MOLT-4
Malme-3M = test system: Malme-3M
NCI-H23 = test system: NCI-H23
NCI-H460 = test system: NCI-H460
NCI-H522 = test system: NCI-H522
OVCAR-3 = test system: OVCAR-3
OVCAR-4 = test system: OVCAR-4
OVCAR-5 = test system: OVCAR-5
OVCAR-8 = test system: OVCAR-8
RPMI-8226 = test system: RPMI-8226
RXF 393 = test system: RXF 393
RXF 631 = test system: RXF 631
SF-268 = test system: SF-268
SF-295 = test system: SF-295
SF-539 = test system: SF-539
SK-MEL-28 = test system: SK-MEL-28
SK-MEL-2 = test system: SK-MEL-2
SK-MEL-5 = test system: SK-MEL-5
SK-OV-3 = test system: SK-OV-3
SN12C = test system: SN12C
SNB-19 = test system: SNB-19
SNB-75 = test system: SNB-75
SW-620 = test system: SW-620
TK-10 = test system: TK-10
U-251 = test system: U-251
UACC-257 = test system: UACC-257
UACC-62 = test system: UACC-62
UO-31 = test system: UO-31
XF498 = test system: XF498
HCT-116 = test system: HCT-116
HOP-92 = test system: HOP-92
SR = test system: SR

Measured: GI50

C=CCN(N=O)C(=O)N(CCCC(NC(C)=O)C(=O)NCc1ccccc1)Cc1ccccc1 (stereo unspecified)
inactive: 786-0 80.5 µM | A498 99.3 µM | A549 61.9 µM | ACHN 54.7 µM | CAKI-1 30.5 µM | CCRF-CEM 28.2 µM | COLO 205 90.4 µM | DMS-114 36.9 µM | DMS-273 95.7 µM | EKVX 58.2 µM | HL-60 19.6 µM | HOP-62 > 100 µM | HT-29 24.2 µM | IGROV-1 > 100 µM | K562 37 µM | KM-20L2 42.2 µM | KM12 42.4 µM | LOX IMVI 46.9 µM | LXFL 529 46.1 µM | M14 38.4 µM | M19-MEL 44.4 µM | MOLT-4 16.9 µM | Malme-3M 98.4 µM | NCI-H23 > 100 µM | NCI-H460 55.8 µM | NCI-H522 21.4 µM | OVCAR-3 31 µM | OVCAR-4 36.1 µM | OVCAR-5 > 100 µM | OVCAR-8 67.3 µM | RPMI-8226 18.2 µM | RXF 393 42.2 µM | RXF 631 47.2 µM | SF-268 62.2 µM | SF-295 38.5 µM | SF-539 37.2 µM | SK-MEL-28 79.4 µM | SK-MEL-2 > 100 µM | SK-MEL-5 31.1 µM | SK-OV-3 > 100 µM | SN12C 67.6 µM | SNB-19 82.6 µM | SNB-75 39 µM | SW-620 61.4 µM | TK-10 87.1 µM | U-251 78.7 µM | UACC-257 57.7 µM | UACC-62 49.8 µM | UO-31 33.1 µM | XF498 36.3 µM
73.8 µM: HCT-15

O=C1[C@@H]2C(c3ccc(Br)cc3)=NO[C@@H]2C(=O)N1c1ccc(Cc2ccc(N3C(=O)[C@H]4C(c5ccc(Br)cc5)=NO[C@H]4C3=O)cc2)cc1
active: A498 0.0139 µM
inactive: ACHN > 40 µM | DMS-273 > 40 µM | HCT-116 > 40 µM | HOP-92 > 40 µM | RXF 631 > 40 µM | SN12C > 40 µM | SR 19.1 µM | TK-10 16.9 µM
> 40 µM: HCT-15
